In patent US20230191413A1, “METHOD AND APPARATUS FOR MEASURING PHASE TRANSITION CHARACTERISTICS OF MACROMOLECULES” (CAMBRIDGE ENTERPRISE LIMITED, priority 2020, published 2023):

Target: T1, FUS-GFP (FUS^G156E-EGFP) (Homo sapiens, UniProt P35637, G156E)
T1 sequence (P35637 1-526 G156E): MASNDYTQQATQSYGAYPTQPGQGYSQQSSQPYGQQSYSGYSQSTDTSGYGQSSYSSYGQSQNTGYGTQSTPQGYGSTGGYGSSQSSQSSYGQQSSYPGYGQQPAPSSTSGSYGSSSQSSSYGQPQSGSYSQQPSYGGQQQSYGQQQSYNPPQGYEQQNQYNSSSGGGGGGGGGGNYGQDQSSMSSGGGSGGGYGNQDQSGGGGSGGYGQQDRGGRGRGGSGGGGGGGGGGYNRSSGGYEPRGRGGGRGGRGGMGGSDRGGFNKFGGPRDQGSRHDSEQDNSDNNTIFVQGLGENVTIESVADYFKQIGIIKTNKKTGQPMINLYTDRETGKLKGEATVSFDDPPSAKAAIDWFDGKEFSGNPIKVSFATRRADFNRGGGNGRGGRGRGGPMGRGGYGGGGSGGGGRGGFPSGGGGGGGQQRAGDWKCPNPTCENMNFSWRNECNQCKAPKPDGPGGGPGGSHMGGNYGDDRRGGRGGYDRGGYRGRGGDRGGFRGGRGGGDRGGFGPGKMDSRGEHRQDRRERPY
Assay: Droplet microfluidics phase diagram of FUS-GFP liquid-liquid phase separation as a function of protein and 1,6-hexanediol concentration
Type: biochemical
Conditions: micro-droplets, GFP fluorescence puncta; homogeneous phase at higher diol concentrations (FIG. 6, N=322 droplets)
Description: The method utilises droplet microfluidics to rapidly produce many micro-droplets, each of which can be considered a discrete microenvironment in which to study protein phase separation. By altering the input solution conditions, a broad range of phase-separation environments are produced rapidly in order to map LLPS behaviour over a wide region of chemical space. […] Using the microfluidic platform, the phase boundary between phase-separated and homogeneous FUS solution is determined, as modulated by the small molecule 1,6-hexanediol, which is known to strongly interfere with LLPS behaviour. […]
Alexa647 dye (10 μM) was mixed with the 1,6-hexanediol solution, to provide a fluorescent marker for the intra-droplet 1,6-hexanediol concentration. […] Samples were collected for three minutes before undergoing fluorescence imaging analysis.
The concentration of FUS^G156E-EGFP and 1,6-hexanediol present in each droplet was determined by integration of volume-normalised EGFP (green fluorescent protein) and Alexa647 fluorescence, respectively. Phase separation was observed by the presence of discrete puncta in GFP fluorescence, whereas homogeneous droplet fluorescence indicated the absence of phase separation (FIG. 5). […]

- concentration of 1,6-hexanediol at which phase separation of FUS-GFP was observable: < 1 % v/v
SMILES: OCCCCCCO [1,6-hexanediol]
